Earlier results as cited in US9012464B2, “Salts and polymorphic forms of Afatinib” (Ratiopharm GmbH, priority 2010, dated 2015).

Conditions: acid compound used for forming afatinib salts

For `O=S(=O)(O)c1ccccc1` [Benzenesulphonic acid], the pKa1 is listed as 0.7.
